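Test compounds were applied to cells in 96-well plates for 48 hours at 5 doses. At the GI50, growth is halved.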 Active and inactive are the calls of the source. Cut-off read from the data, not from the text of the source: active = GI50 up to about 1.1 µM and inactive = higher.
Experiments:
Assay in all cases: NCI tumour cell line growth inhibition, 48 h
T47D = tested on: T47D
NCI-H226 = tested on: NCI-H226
OVCAR-8 = tested on: OVCAR-8
SF-539 = tested on: SF-539
SR = tested on: SR
SK-MEL-2 = tested on: SK-MEL-2
OVCAR-5 = tested on: OVCAR-5
SK-MEL-5 = tested on: SK-MEL-5
HOP-62 = tested on: HOP-62
CCRF-CEM = tested on: CCRF-CEM
SNB-75 = tested on: SNB-75
HCT-15 = tested on: HCT-15
LOX IMVI = tested on: LOX IMVI
UACC-62 = tested on: UACC-62
EKVX = tested on: EKVX
MDA-MB-231 = tested on: MDA-MB-231
HOP-92 = tested on: HOP-92
UO-31 = tested on: UO-31
DU-145 = tested on: DU-145
NCI-H522 = tested on: NCI-H522
RPMI-8226 = tested on: RPMI-8226
Malme-3M = tested on: Malme-3M
SW-620 = tested on: SW-620
TK-10 = tested on: TK-10
HL-60 = tested on: HL-60
BT-549 = tested on: BT-549
NCI-H460 = tested on: NCI-H460
HCC 2998 = tested on: HCC 2998
A498 = tested on: A498
KM12 = tested on: KM12
SN12C = tested on: SN12C
MOLT-4 = tested on: MOLT-4
NCI-H23 = tested on: NCI-H23
SF-268 = tested on: SF-268
RXF 393 = tested on: RXF 393
COLO 205 = tested on: COLO 205
U-251 = tested on: U-251
Hs-578T = tested on: Hs-578T
K562 = tested on: K562
MDA-MB-435 = tested on: MDA-MB-435
M14 = tested on: M14
UACC-257 = tested on: UACC-257
HT-29 = tested on: HT-29
NCI/ADR-RES = tested on: NCI/ADR-RES
OVCAR-4 = tested on: OVCAR-4
MCF7 = tested on: MCF7
786-0 = tested on: 786-0
CAKI-1 = tested on: CAKI-1
ACHN = tested on: ACHN
PC-3 = tested on: PC-3
MDA-N = tested on: MDA-N
IGROV-1 = tested on: IGROV-1
SNB-19 = tested on: SNB-19
HCT-116 = tested on: HCT-116
SK-MEL-28 = tested on: SK-MEL-28
A549 = tested on: A549

Q: How did the GI50 (T47D) turn out when `Cc1cn([C@@H]2C[C@@H]2CO)c(=O)[nH]c1=O` was run?
A: The GI50 was > 100 µM (inactive).

Q: And the GI50 (NCI-H226)?
A: The GI50 was > 100 µM (inactive).

Q: And the GI50 (OVCAR-8)?
A: Its GI50 is > 100 µM (inactive).

Q: And the GI50 (SF-539)?
A: Its GI50 is > 100 µM (inactive).

Q: What about the GI50 (SR) of the same molecule?
A: The GI50 was > 100 µM (inactive).

Q: And the GI50 (SK-MEL-2)?
A: Its GI50 is > 100 µM (inactive).

Q: What about the GI50 (OVCAR-5) of the same molecule?
A: The GI50 was > 100 µM (inactive).

Q: And the GI50 (SK-MEL-5)?
A: The GI50 was > 100 µM (inactive).

Q: And the GI50 (HOP-62)?
A: Its GI50 is > 100 µM (inactive).

Q: What about the GI50 (CCRF-CEM) of the same molecule?
A: Its GI50 is > 100 µM (inactive).

Q: And the GI50 (SNB-75)?
A: Its GI50 is > 100 µM (inactive).

Q: What about the GI50 (HCT-15) of the same molecule?
A: Its GI50 is > 100 µM.

Q: And the GI50 (LOX IMVI)?
A: The GI50 was > 100 µM (inactive).

Q: What about the GI50 (UACC-62) of the same molecule?
A: Its GI50 is > 100 µM (inactive).

Q: And the GI50 (EKVX)?
A: Its GI50 is > 100 µM (inactive).

Q: And the GI50 (MDA-MB-231)?
A: Its GI50 is > 100 µM (inactive).

Q: What about the GI50 (HOP-92) of the same molecule?
A: Its GI50 is > 100 µM (inactive).

Q: And the GI50 (UO-31)?
A: The GI50 was > 100 µM (inactive).

Q: And the GI50 (DU-145)?
A: Its GI50 is > 100 µM (inactive).

Q: And the GI50 (NCI-H522)?
A: The GI50 was > 100 µM (inactive).

Q: And the GI50 (RPMI-8226)?
A: The GI50 was > 100 µM (inactive).

Q: And the GI50 (Malme-3M)?
A: Its GI50 is > 100 µM (inactive).

Q: What about the GI50 (SW-620) of the same molecule?
A: The GI50 was > 100 µM (inactive).

Q: What about the GI50 (TK-10) of the same molecule?
A: Its GI50 is > 100 µM (inactive).

Q: And the GI50 (HL-60)?
A: Its GI50 is > 100 µM (inactive).

Q: What about the GI50 (BT-549) of the same molecule?
A: The GI50 was > 100 µM (inactive).

Q: What about the GI50 (NCI-H460) of the same molecule?
A: Its GI50 is > 100 µM (inactive).

Q: What about the GI50 (HCC 2998) of the same molecule?
A: Its GI50 is > 100 µM (inactive).

Q: What about the GI50 (A498) of the same molecule?
A: The GI50 was > 100 µM (inactive).

Q: What about the GI50 (KM12) of the same molecule?
A: Its GI50 is > 100 µM (inactive).

Q: What about the GI50 (SN12C) of the same molecule?
A: Its GI50 is > 100 µM (inactive).

Q: What about the GI50 (MOLT-4) of the same molecule?
A: Its GI50 is > 100 µM (inactive).

Q: What about the GI50 (NCI-H23) of the same molecule?
A: The GI50 was > 100 µM (inactive).

Q: And the GI50 (SF-268)?
A: The GI50 was > 100 µM (inactive).

Q: What about the GI50 (RXF 393) of the same molecule?
A: The GI50 was > 100 µM (inactive).

Q: What about the GI50 (COLO 205) of the same molecule?
A: Its GI50 is > 100 µM (inactive).

Q: What about the GI50 (U-251) of the same molecule?
A: Its GI50 is > 100 µM (inactive).

Q: And the GI50 (Hs-578T)?
A: The GI50 was > 100 µM (inactive).

Q: And the GI50 (K562)?
A: Its GI50 is > 100 µM (inactive).

Q: And the GI50 (MDA-MB-435)?
A: Its GI50 is > 100 µM (inactive).

Q: And the GI50 (M14)?
A: Its GI50 is > 100 µM (inactive).

Q: What about the GI50 (UACC-257) of the same molecule?
A: Its GI50 is > 100 µM (inactive).

Q: What about the GI50 (HT-29) of the same molecule?
A: Its GI50 is > 100 µM (inactive).

Q: And the GI50 (NCI/ADR-RES)?
A: Its GI50 is > 100 µM (inactive).

Q: What about the GI50 (OVCAR-4) of the same molecule?
A: Its GI50 is > 100 µM (inactive).

Q: What about the GI50 (MCF7) of the same molecule?
A: The GI50 was > 100 µM (inactive).

Q: What about the GI50 (786-0) of the same molecule?
A: Its GI50 is > 100 µM (inactive).

Q: What about the GI50 (CAKI-1) of the same molecule?
A: Its GI50 is > 100 µM (inactive).

Q: And the GI50 (ACHN)?
A: The GI50 was > 100 µM (inactive).

Q: What about the GI50 (PC-3) of the same molecule?
A: The GI50 was > 100 µM (inactive).

Q: And the GI50 (MDA-N)?
A: The GI50 was > 100 µM (inactive).

Q: What about the GI50 (IGROV-1) of the same molecule?
A: The GI50 was > 100 µM (inactive).

Q: And the GI50 (SNB-19)?
A: Its GI50 is > 100 µM (inactive).

Q: What about the GI50 (HCT-116) of the same molecule?
A: The GI50 was > 100 µM (inactive).

Q: What about the GI50 (SK-MEL-28) of the same molecule?
A: The GI50 was > 100 µM (inactive).

Q: What about the GI50 (A549) of the same molecule?
A: Its GI50 is > 100 µM (inactive).

— ChEMBL document CHEMBL1201862, “PubChem BioAssay data set” (2004)
